Data set [1] has as its system calf thymus DNA topoisomerase II. Briefly: In vitro topoisomerase-DNA cleavage assay, topoisomerase II. In kind it is biochemical. The source says:
(§1) Calf thymus DNA topoisomerases were purchased from TopoGen Inc., Columbus, Ohio. Tritium-labeled thymidine (60-90 ci/mmol) for labeling cellular DNA to measure protein-DNA complexes and αP^32-labeled deoxycytidine triphosphate (>3000 ci/mmol) were obtained from ICN Biochemicals Inc., Irvine, Calif. The latter radiochemical was used with a T4-DNA polymerase polymerase-labeling system from BRL Inc., Gaithersburg, Md., to prepare P^32-plasmid DNA for in vitro cleavage assays. Tissue culture reagents were purchased from Sigma Chemical Co., St. Louis, Mo., and Gibco-BRL Inc. All other chemicals were reagent grade.
(§2) The detailed method used to measure stimulation of cleavable complexes in vitro is described in K. Bastow et al., Planta Med. 59:195 (1993).. Briefly, incubated cleavage reactions containing one nanogram of P^32 end-labeled linearized PBR322 DNA, one unit of enzyme and test compound were divided equally for analysis. One portion was prepared for gel electrophoresis with subsequent autoradiography and protein-DNA complexes in the remaining sample were analyzed using the potassium-SDS precipitation method and scintillation spectrometry.

For data set [2], the system named is KB cells. In words: Cellular protein-DNA complex formation (potassium-SDS precipitation). Type of data set: cell-based. The settings on record: one micromolar and lower; one hour. As for the experimental part: Stimulation of intracellular protein associated DNA breaks was measured using a standard assay method described in Y. Kashiwada et al., J. Pharm. Sci. 82:487 (1993). Briefly, KB cells were labeled overnight with tritiated thymidine (0.5 μCi/mL), chased for two hours and then treated in triplicate with test compounds at various concentrations. After one hour, samples were processed and protein-DNA complexes were measured as potassium-SDS precipitable radioactivity.

For data set [3], the system named is KB cells. Briefly: Gel lysis assay for genomic DNA breaks. The settings on record: for reversal of genomic DNA fragmentation upon drug removal: additional hour in fresh media; for genomic DNA fragmentation: three hours. Type of data set: cell-based. As for the experimental part: One million KB cells in 25cm^2 flasks were treated for three hours with test compound, the medium was discarded then cells were scraped into ice-cold PBS and harvested by centrifugation. Washed cell pellets were resuspended in eighty microliters of a 37° C. gel solution [1% (w/v) low-melting point agarose in PBS], and were cast in a mold and refrigerated to form 6×7×2 mm agarose plugs. Plugs of cells were incubated in lysis-digestion buffer (0.4M EDTA, 0.01 Tris (HCl, pH 8.0), 1% (w/v) N-lauryl-sarcosine and 100 μg/mL proteinase K) at 37° overnight or 50° for one hour. The treated plugs were equilibrated in TBE buffer and placed against a gel comb in a horizontal gel casting tray (BRL Inc., H4 system format). A 55° gel solution containing 0.8% (w/v) agarose in TBE was poured and allowed to gel. Electrophoresis was at 3.5 v/cm (measured between electrodes) for 16 hours at 4° without buffer re-circulation. The gel was stained with 1 μg/mL ethidium bromide in water, treated overnight at 25° C. with RN'ase (1 μg/mL), and then photographed under UV illumination. For the reversibility studies, treated cells were washed with PBS and incubated with fresh media for an additional hour before harvesting for plug preparation and gel analysis.

Data set [4] concerns KB oral carcinoma cell line. The settings on record: KB growth inhibition; cited from earlier work.
Data set [5] concerns KB-7d. The following applies: relative to KB; cited from earlier work.
In data set [6] the target is T1, calf thymus DNA topoisomerase I (Bos taurus, UniProt F1MN93).
T1 construct: Calf thymus DNA topoisomerases were purchased from TopoGen Inc., Columbus, Ohio; purchased TopoGen Inc., Columbus, Ohio; host or cells: calf thymus (tissue-derived enzyme)
T1 sequence (F1MN93 1-767): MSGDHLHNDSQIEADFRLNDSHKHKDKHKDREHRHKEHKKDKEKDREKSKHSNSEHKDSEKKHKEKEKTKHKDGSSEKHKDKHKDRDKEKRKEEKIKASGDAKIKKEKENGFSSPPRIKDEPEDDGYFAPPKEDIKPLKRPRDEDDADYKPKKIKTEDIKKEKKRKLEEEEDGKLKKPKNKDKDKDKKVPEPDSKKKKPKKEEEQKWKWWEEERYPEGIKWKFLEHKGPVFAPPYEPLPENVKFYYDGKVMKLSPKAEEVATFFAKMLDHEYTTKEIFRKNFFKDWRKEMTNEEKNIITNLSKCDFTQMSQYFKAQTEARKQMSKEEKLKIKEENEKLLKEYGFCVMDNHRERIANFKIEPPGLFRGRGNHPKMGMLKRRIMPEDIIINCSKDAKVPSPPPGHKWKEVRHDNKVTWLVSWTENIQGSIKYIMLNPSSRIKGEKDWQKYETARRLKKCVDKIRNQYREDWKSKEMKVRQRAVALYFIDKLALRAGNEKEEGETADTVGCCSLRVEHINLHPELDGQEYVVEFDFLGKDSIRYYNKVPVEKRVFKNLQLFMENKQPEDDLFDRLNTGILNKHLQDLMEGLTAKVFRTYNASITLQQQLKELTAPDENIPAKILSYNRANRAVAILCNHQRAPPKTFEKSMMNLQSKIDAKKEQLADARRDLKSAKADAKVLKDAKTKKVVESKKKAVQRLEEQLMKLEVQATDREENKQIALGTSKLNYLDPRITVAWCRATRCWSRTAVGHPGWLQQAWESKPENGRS
Briefly: In vitro topoisomerase-DNA cleavage assay, topoisomerase I. In kind it is biochemical.
Text: as §1, §2

Data set [7] has as its system KB oral carcinoma cell line. Briefly: Cell growth inhibition, KB cells. In kind it is cell-based. The following applies: Homo sapiens, KB. As for the experimental part: (§3) The KB oral carcinoma cell line was provided by M. Fisher (Pharmacology, UNC- Chapel Hill). The isolation and properties of the etoposide-resistant sub-clone, KB-7d, and the camptothecin-resistant line, KB-CPT100, were reported in P. Ferguson et al., Cancer Res. 48:5956 (1988) and D. Beidler et al., Cancer Res. 56:345 (1996), and are discussed briefly hereinafter. The vincristine-resistant sub-clone, KB-VIN20c was isolated by selection in 20 nM vincristine and over-expresses the P-glycoprotein multidrug-resistant drug-efflux protein (unpublished results).
(§4) All cell types were propagated in RPMI-1640 medium supplemented with 5% (v/v) fetal calf serum and 100 μg/mL kanamycin at 37° in a humidified atmosphere of 5% CO2 and 95% air. Over the course of the experiments, doubling times of cells were 24±4 hours.
(§5) Fifty thousand cells were plated in 25 cm^2 flasks (Falcon, N.J., USA) and incubated overnight. The medium was supplemented with test compounds at various concentrations and cultures were incubated for 48-51 hours (for about two cell doublings) before cells were trypsinized and then counted using a hemacytometer. The number of treated cells which excluded 0.5% (v/v) trypan blue were expressed as a percentage of the growth measured in control cultures. Compounds were evaluated in at least two independent experiments and the combined results were analyzed as scatter plots with dose-responses being computer fitted by linear regression at the 95% confidence level using Graphpad Software., San Diego, Calif. The IC50 concentrations which inhibited cell growth by fifty percent relative to control were interpolated from graphed results.

Data set [8] has as its system KB-7d. Briefly: Cell growth inhibition, etoposide-resistant KB-7d cells. Type of data set: cell-based. As for the experimental part: as §3, §4, §5
Data set [9] relates to KB-CPT100. In words: Cell growth inhibition, camptothecin-resistant KB-CPT100 cells. In kind it is cell-based. As for the experimental part:
as §3, §4, §5

Data set [10] deals with KB-VIN20c. Briefly: Cell growth inhibition, vincristine-resistant KB-VIN20c cells. Type of data set: cell-based. How it is done:
as §3, §4, §5

Another data set has as its system KB. Briefly: Cytotoxicity measured as reduced plating efficiency, KB cells. In kind it is cell-based. The settings on record: Homo sapiens, 3 h, read-out: Cytotoxicity Measured as Reduced Plating Efficiency IC50. How it is done:
(§6) LC50 concentrations were determined by treating cells for three hours with different concentrations of compounds then replating cells to measure colony formation and plating efficiency as the percent of total cells forming colonies. Compounds were evaluated in three independent experiments. The plating efficiences of untreated cells varied between experiments with values ranging from 14-31% for KB, 31-56% for KB-7d, 16-38% for KB-VIN20c and 21-36% for KB-CPT100. A concentration of compound that reduced plating efficiency by fifty percent relative to control, the LC50, was determined graphically as stated in the preceding section.

The test system of data set [11] is KB-7d. Briefly: Cytotoxicity measured as reduced plating efficiency, KB-7d cells. In kind it is cell-based. The settings on record: KB7D, 3 h, read-out: Cytotoxicity Measured as Reduced Plating Efficiency IC50. As for the experimental part: as §6
Data set [12] concerns KB-VIN20c. Briefly: Cytotoxicity measured as reduced plating efficiency, KB-VIN20c cells. The following applies: 3 h, read-out: Cytotoxicity Measured as Reduced Plating Efficiency IC50. In kind it is cell-based. How it is done: as §6
Data set [13] relates to KB-CPT100. The following applies: relative to KB; cited from earlier work.
[14] abbreviates: fifty-times the IC50 for KB growth inhibition (etoposide eight, 4b four, 3 0.4, S-2 0.8 micromolar).
The mark [15] stands for this setting: ten micromolar, S-1 vs 3, 4a, S-2 vs 3, 4b.

Where two headings read alike, the source gives them in different places.

Usually IC50 stands for the concentration that gives 50% inhibition. As a reminder, the melting point is the temperature, or range, at which the solid turns liquid.

As to `COc1cc([C@@H]2c3cc4c(cc3[C@@H](O[C@@H]3O[C@@H]5CO[C@@H](C)O[C@H]5[C@H](O)[C@H]3O)[C@H]3COC(=O)[C@H]23)OCO4)cc(OC)c1O` [Compound C-1, etoposide, reference compound], the “stimulation of in vitro topoisomerase II cleavable-complexes, dose behaviour” value in data set [1] is reported as “act saturably”. The results for the “stimulation of topoisomerase II-induced DNA cleavage over enzyme control” value in [1] (fifty micromolar), in [1] (one micromolar) and in data set [1] (ten micromolar) were 12 fold, 1.5 fold and 3 fold, respectively. For the same compound, the “intracellular protein-DNA complex formation” value in the data set with KB cells [2] is “no measurable response”. Besides, the “reversal of genomic DNA fragmentation upon drug removal” value in the data set on KB cells [3] (fifty-times the IC50) is “integrity of the DNA was restored”. Also, the “genomic DNA fragmentation” value with KB cells [3] (setting [14]) is “High molecular weight DNA fragments were detected”. The IC50 in data set [4] is 0.16 ± 0.04 µM. For the same compound, the “resistance of KB-7d cells” value with KB-7d [5] was 145 fold.
For `CC[C@@]1(O)C(=O)OCc2c1cc1n(c2=O)Cc2c-1nc1ccccc1c2/C=N\c1ccc(N[C@@H]2c3cc4c(cc3[C@@H](c3cc(OC)c(O)c(OC)c3)[C@H]3C(=O)OC[C@@H]32)OCO4)cc1` [Compound S-1], the melting point is > 300 °C (dec.). Further, in data set [1] (ten micromolar, FIG. 1A), the “cleavable complex formation with topoisomerase II” value is given as “induced cleavable complexes”. Also, the “topoisomerase II cleavable complex activity relative to unconjugated components” value in data set [1] (setting [15]) is on record as “reduced about two-fold”. For the same compound, the “cleavable complex formation with topoisomerase I” value in data set [6] (ten micromolar, FIG. 1A) was “induced cleavable complexes”. Further, in [6] (setting [15]), the “topoisomerase I cleavable complex activity relative to unconjugated components” value is on record as “reduced about two-fold”.
Regarding `CC[C@@]1(O)C(=O)OCc2c1cc1n(c2=O)Cc2c-1nc1ccccc1c2C=O` [Compound 3, 7-formyl camptothecin, reference compound], the IC50 in [7] (read-out: estimated IC50, KB cell growth) was 0.007 µM; in data set [7] (48-51 hours, two numbers in brackets after the value, read-out: Cell Growth Inhibition IC50), 0.007 µM; with KB-7d [8] (KB7D, KB-7d, 48-51 hours, two numbers in brackets after the value, read-out: Cell Growth Inhibition IC50), 0.009 µM; in the data set with KB-CPT100 [9] (KBCPT100, KB-CPT100, 48-51 hours, two numbers in brackets after the value, read-out: Cell Growth Inhibition IC50) it was 0.575 µM; with KB-VIN20c [10] (XB-VIN20c (so in the source), 48-51 hours, two numbers in brackets after the value, read-out: Cell Growth Inhibition IC50), 0.018 µM; in the data set on KB, 10 µM. In addition, the results for the IC50 in the data set with KB-7d [11] and in the data set with KB-VIN20c [12] were above 16 µM and 12 µM, respectively. Moreover, the “cross-resistance of KB-7d cells, growth inhibition” value in the data set on KB-7d [8] (relative to KB) is listed as “equally active”. Moreover, the “cross-resistance of KB-CPT100 cells, growth inhibition” value with KB-CPT100 [9] (relative to KB) is given as “about 58 fold”. The “cross-resistance of KB-VIN20c cells, growth inhibition” value in the data set on KB-VIN20c [10] (relative to KB) is “no more than 2 fold”. For the same compound, the “stimulation of topoisomerase I cleavage activity, dose behaviour” value in [6] (higher test concentrations) is “not inhibited at higher test concentrations”. The “genomic DNA fragmentation” value with KB cells [3] (setting [14]) is “inactive”; in the data set with KB cells [3] (twenty-fold higher concentration (3 at sixteen micromolar)), “marginal fragmentation”. Besides, in the data set on KB cells [3] (twenty-fold higher concentration), the “reversal of genomic DNA fragmentation upon drug removal” value is reported as “not affected by reversing treatment”.
For `CC[C@@]1(O)C(=O)OCc2c1cc1n(c2=O)Cc2cc3ccccc3nc2-1` [Compound C-2, camptothecin], the IC50 in [4] is 0.0098 ± 0.0032 µM. The “resistance of KB-CPT100 cells to growth-inhibitory effect” value in the data set with KB-CPT100 [13] is on record as 32 fold.

Values taken from patent US6420377B1, “Covalent conjugates of topoisomerase I and topoisomerase II inhibitors” (priority 1997, dated 2002).
